Results reported in patent US11053204B2, “Pyrimidinyloxy benzene derivatives as herbicides” (FMC Corporation, priority 2015, dated 2021).

Legend:
Assay type in all cases: in vivo
[1] = test system: Italian ryegrass (Lolium multiflorum); experiment: Test A preemergence, visual injury rating; details: Lolium multiflorum, pre-emergence, 240 h, 0 to 100 scale (0 no effect, 100 complete control), read-out: Ryegrass, Italian plant response rating
Procedure, shortened: (§1)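 Pre- and postemergence greenhouse screen. Soil: loam + sand. Spray carrier: solvent mixture, non-phytotoxic, with surfactant. Post timing at 1–2 leaves, height 2–10 cm. Readout: visual injury on a 0–100 scale roughly 10 days after application, untreated plants as reference.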

[2] = test system: giant foxtail (Setaria faberii); experiment: Test A preemergence, visual injury rating; details: Setaria faberi, pre-emergence, 240 h, 0 to 100 scale (0 no effect, 100 complete control), read-out: Foxtail, Giant plant response rating
Procedure, shortened: as §1

[3] = test system: pigweed (Amaranthus retroflexus); experiment: Test A preemergence, visual injury rating; details: Amaranthus retroflexus, pre-emergence, 240 h, 0 to 100 scale (0 no effect, 100 complete control), read-out: Pigweed plant response rating
Procedure, shortened: as §1

[4] = test system: ragweed (common ragweed, Ambrosia elatior); experiment: Test A preemergence, visual injury rating; details: Ambrosia artemisiifolia, pre-emergence, 240 h, 0 to 100 scale (0 no effect, 100 complete control), read-out: Ragweed plant response rating
Procedure, shortened: as §1

[5] = test system: blackgrass (Alopecurus myosuroides); experiment: Test C preemergence, plant response rating; details: Alopecurus myosuroides, pre-emergence, Preemergence
Procedure, shortened: (§2)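 Visual injury score, 0 = no effect, 100 = complete control, assigned against untreated controls after 13 to 15 d in the greenhouse. Compounds were applied in a surfactant-containing non-phytotoxic solvent mix, preemergence to seeded loam/sand or silt loam soil, or postemergence to 1- to 4-leaf plants (2 to 18 cm).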

[6] = test system: corn (Zea mays); experiment: Test C preemergence, plant response rating; details: Zea mays, pre-emergence, Preemergence
Procedure, shortened: as §2

[7] = test system: crabgrass, large (large crabgrass, Digitaria sanguinalis); experiment: Test C preemergence, plant response rating; details: Digitaria sanguinalis, pre-emergence, Preemergence
Procedure, shortened: as §2

[8] = test system: foxtail, giant (giant foxtail, Setaria faberii); experiment: Test C preemergence, plant response rating; details: Setaria faberi, pre-emergence, Preemergence
Procedure, shortened: as §2

[9] = test system: lambsquarters (Chenopodium album); experiment: Test C preemergence, plant response rating; details: Chenopodium album, pre-emergence, Preemergence
Procedure, shortened: as §2

[10] = test system: morningglory (Ipomoea coccinea); experiment: Test C preemergence, plant response rating; details: Ipomoea, pre-emergence, Preemergence
Procedure, shortened: as §2

[11] = test system: nutsedge, yellow (yellow nutsedge, Cyperus esculentus); experiment: Test C preemergence, plant response rating; details: Cyperus, pre-emergence, Preemergence
Procedure, shortened: as §2

[12] = test system: oilseed rape (Brassica napus); experiment: Test C preemergence, plant response rating; details: Brassica napus, pre-emergence, Preemergence
Procedure, shortened: as §2

[13] = test system: ragweed (common ragweed, Ambrosia elatior); experiment: Test C preemergence, plant response rating; details: Ambrosia artemisiifolia, pre-emergence, Preemergence
Procedure, shortened: as §2

[14] = test system: ryegrass, Italian (Italian ryegrass, Lolium multiflorum); experiment: Test C preemergence, plant response rating; details: Lolium multiflorum, pre-emergence, Preemergence
Procedure, shortened: as §2

[15] = test system: soybean (Glycine max); experiment: Test C preemergence, plant response rating; details: Glycine max, pre-emergence, Preemergence
Procedure, shortened: as §2

[16] = test system: velvetleaf (Abutilon theophrasti); experiment: Test C preemergence, plant response rating; details: Abutilon theophrasti, pre-emergence, Preemergence
Procedure, shortened: as §2

[17] = test system: waterhemp (common waterhemp, Amaranthus rudis); experiment: Test C preemergence, plant response rating; details: Amaranthus tuberculatus, pre-emergence, Preemergence
Procedure, shortened: as §2

[18] = test system: wheat (winter wheat, Triticum aestivum); experiment: Test C preemergence, plant response rating; details: Triticum aestivum, pre-emergence, Preemergence
Procedure, shortened: as §2

O=C(OCCCC(F)(F)F)c1c(Br)cccc1Oc1ncc(Cl)cn1 [Compound 20, 4,4,4-trifluorobutyl 2-bromo-6-[(5-chloro-2-pyrimidinyl)oxy]benzoate]
pest or weed control at 125 g/ha ([1]; 125 g ai/ha): 30%
pest or weed control at 500 g/ha ([1]; 500 g ai/ha): 90%
pest or weed control at 125 g/ha ([2]; 125 g ai/ha): 100%
pest or weed control at 500 g/ha ([2]; 500 g ai/ha): 100%
pest or weed control at 125 g/ha ([3]; 125 g ai/ha): 100%
pest or weed control at 500 g/ha ([3]; 500 g ai/ha): 100%
pest or weed control at 125 g/ha ([4]; 125 g ai/ha): 0%
pest or weed control at 500 g/ha ([4]; 500 g ai/ha): 0%
pest or weed control at 62 g/ha ([5]; 62 g ai/ha, scale of 0 to 100): 85%
pest or weed control at 125 g/ha ([5]; 125 g ai/ha, scale of 0 to 100): 100%
pest or weed control at 16 g/ha ([5]; 16 g ai/ha, scale 0 to 100): 0%
pest or weed control at 31 g/ha ([5]; 31 g ai/ha, scale 0 to 100): 40%
Corn plant response rating (crop injury, 0 = no effect, 100 = complete kill) at 62 g/ha ([6]; 62 g ai/ha, scale of 0 to 100): 0%
Corn plant response rating (crop injury, 0 = no effect, 100 = complete kill) at 125 g/ha ([6]; 125 g ai/ha, scale of 0 to 100): 30%
Corn plant response rating (crop injury, 0 = no effect, 100 = complete kill) at 16 g/ha ([6]; 16 g ai/ha, scale 0 to 100): 0%
Corn plant response rating (crop injury, 0 = no effect, 100 = complete kill) at 31 g/ha ([6]; 31 g ai/ha, scale 0 to 100): 0%
pest or weed control at 62 g/ha ([7]; 62 g ai/ha, scale of 0 to 100): 98%
pest or weed control at 125 g/ha ([7]; 125 g ai/ha, scale of 0 to 100): 100%
pest or weed control at 16 g/ha ([7]; 16 g ai/ha, scale 0 to 100): 5%
pest or weed control at 31 g/ha ([7]; 31 g ai/ha, scale 0 to 100): 50%
pest or weed control at 62 g/ha ([8]; 62 g ai/ha, scale of 0 to 100): 90%
pest or weed control at 125 g/ha ([8]; 125 g ai/ha, scale of 0 to 100): 100%
pest or weed control at 16 g/ha ([8]; 16 g ai/ha, scale 0 to 100): 35%
pest or weed control at 31 g/ha ([8]; 31 g ai/ha, scale 0 to 100): 50%
pest or weed control at 125 g/ha ([9]; 125 g ai/ha, scale of 0 to 100): 90%
pest or weed control at 16 g/ha ([9]; 16 g ai/ha, scale 0 to 100): 0%
pest or weed control at 31 g/ha ([9]; 31 g ai/ha, scale 0 to 100): 5%
pest or weed control at 62 g/ha ([9]; 62 g ai/ha, scale 0 to 100): 10%
pest or weed control at 125 g/ha ([10]; 125 g ai/ha, scale of 0 to 100): 10%
pest or weed control at 16 g/ha ([10]; 16 g ai/ha, scale 0 to 100): 0%
pest or weed control at 31 g/ha ([10]; 31 g ai/ha, scale 0 to 100): 0%
pest or weed control at 62 g/ha ([10]; 62 g ai/ha, scale 0 to 100): 5%
pest or weed control at 125 g/ha ([11]; 125 g ai/ha, scale of 0 to 100): 10%
pest or weed control at 16 g/ha ([11]; 16 g ai/ha, scale 0 to 100): 0%
pest or weed control at 31 g/ha ([11]; 31 g ai/ha, scale 0 to 100): 0%
pest or weed control at 62 g/ha ([11]; 62 g ai/ha, scale 0 to 100): 0%
plant injury at 125 g/ha ([12]; 125 g ai/ha, scale of 0 to 100): 50%
plant injury at 16 g/ha ([12]; 16 g ai/ha, scale 0 to 100): 0%
plant injury at 31 g/ha ([12]; 31 g ai/ha, scale 0 to 100): 0%
plant injury at 62 g/ha ([12]; 62 g ai/ha, scale 0 to 100): 50%
pest or weed control at 125 g/ha ([13]; 125 g ai/ha, scale of 0 to 100): 0%
pest or weed control at 16 g/ha ([13]; 16 g ai/ha, scale 0 to 100): 0%
pest or weed control at 31 g/ha ([13]; 31 g ai/ha, scale 0 to 100): 0%
pest or weed control at 62 g/ha ([13]; 62 g ai/ha, scale 0 to 100): 0%
pest or weed control at 125 g/ha ([14]; 125 g ai/ha, scale of 0 to 100): 70%
pest or weed control at 16 g/ha ([14]; 16 g ai/ha, scale 0 to 100): 0%
pest or weed control at 31 g/ha ([14]; 31 g ai/ha, scale 0 to 100): 0%
pest or weed control at 62 g/ha ([14]; 62 g ai/ha, scale 0 to 100): 30%
plant injury at 125 g/ha ([15]; 125 g ai/ha, scale of 0 to 100): 10%
plant injury at 16 g/ha ([15]; 16 g ai/ha, scale 0 to 100): 0%
plant injury at 31 g/ha ([15]; 31 g ai/ha, scale 0 to 100): 0%
plant injury at 62 g/ha ([15]; 62 g ai/ha, scale 0 to 100): 0%
pest or weed control at 125 g/ha ([16]; 125 g ai/ha, scale of 0 to 100): 50%
pest or weed control at 16 g/ha ([16]; 16 g ai/ha, scale 0 to 100): 0%
pest or weed control at 31 g/ha ([16]; 31 g ai/ha, scale 0 to 100): 0%
pest or weed control at 62 g/ha ([16]; 62 g ai/ha, scale 0 to 100): 5%
pest or weed control at 125 g/ha ([17]; 125 g ai/ha, scale of 0 to 100): 98%
pest or weed control at 16 g/ha ([17]; 16 g ai/ha, scale 0 to 100): 30%
pest or weed control at 31 g/ha ([17]; 31 g ai/ha, scale 0 to 100): 85%
pest or weed control at 62 g/ha ([17]; 62 g ai/ha, scale 0 to 100): 100%
plant injury at 125 g/ha ([18]; 125 g ai/ha, scale of 0 to 100): 5%
plant injury at 16 g/ha ([18]; 16 g ai/ha, scale 0 to 100): 0%
plant injury at 31 g/ha ([18]; 31 g ai/ha, scale 0 to 100): 0%
plant injury at 62 g/ha ([18]; 62 g ai/ha, scale 0 to 100): 0%
